In patent US11345694B2, “Antibacterial compounds” (DISCUVA LTD., priority 2017, dated 2022):
Values after ≈ are worked out from the molar mass of the structure shown.

Tests used:
[1] = test system: E. coli NCTC 13441 (UPEC); experiment: MIC broth microdilution; type: cell-based, Escherichia coli; settings: for MIC: Escherichia coli, NCTC13441
Outline: (§1)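 Compounds are diluted two-fold across a final range of 0.39-200 μM, keeping DMSO no higher than 2% final. Bacteria in cation-adjusted Müller-Hinton broth are then incubated at 37° C under ambient atmosphere for 20-24 h. The lowest growth-inhibiting concentration gives the MIC.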

[2] = test system: Acinetobacter baumannii ATCC 17978 (AB); experiment: MIC broth microdilution; type: cell-based; settings: for MIC: ATCC17978
Outline: as §1

[3] = test system: Staphylococcus aureus ATCC 35556 (SA); experiment: MIC broth microdilution; type: cell-based; settings: for MIC: ATCC35556
Outline: as §1

[4] = test system: Pseudomonas aeruginosa ATCC 33359 (PA); experiment: MIC broth microdilution; type: cell-based; settings: for MIC: ATCC33359
Outline: as §1

[5] = test system: Escherichia coli K12 (EC); experiment: MIC broth microdilution; type: cell-based
Outline: as §1

[6] = test system: Enterobacter cloacae DSM 30054 (Ed); experiment: MIC broth microdilution; type: cell-based; settings: for MIC: DSM30054
Outline: (§2)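 Two-fold dilution series, 0.39-200 μM final, max 2% DMSO; CA-MHB; 37° C, ambient air, 20-24 h; MIC = lowest conc. inhibiting visible growth. CLSI broth microdilution.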

[7] = test system: Serratia marcescens SL1344 (Sm); experiment: MIC broth microdilution; type: cell-based
Outline: as §1

[8] = test system: Salmonella typhimurium XNAA5 (St); experiment: MIC broth microdilution; type: cell-based; settings: for MIC: Salmonella enterica
Outline: as §1

[9] = test system: Klebsiella pneumoniae ATCC 10031 (KP2); experiment: MIC broth microdilution; type: cell-based; settings: for MIC: ATCC10031
Outline: as §2

[10] = test system: human hepatocarcinoma cell line ATCC HB-8065 (HepG2); experiment: Human cell viability (CellTiter-Glo); type: cell-based; settings: Homo sapiens; HepG2 cells, 24 h incubation, CellTiter-Glo luminescence, 0.2-100 μM; read-out: IC50 values against the HepG2 cell line
Outline: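 HepG2 cells were seeded at 20,000 cells/well in MEM with 10% FBS and, after 24 h, exposed for 24 h at 37° C. to two-fold dilutions (final 0.2-100 μM) in MEM with 1% FBS and 1% DMSO. Viability was read by CellTiter-Glo luminescence, with IC50 from a 4-parameter logistic fit.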

[11] = test system: K. pneumoniae H154600588 (KP8); experiment: MIC broth microdilution; type: cell-based, Klebsiella pneumoniae; settings: for MIC: Klebsiella pneumoniae
Outline: as §2

[12] = test system: K. pneumoniae H151440671 (KP10); experiment: MIC broth microdilution; type: cell-based, Klebsiella pneumoniae; settings: for MIC: Klebsiella pneumoniae
Outline: as §2

[13] = test system: K. pneumoniae H154680676 (KP5); experiment: MIC broth microdilution; type: cell-based, Klebsiella pneumoniae; settings: for MIC: Klebsiella pneumoniae
Outline: as §2

[14] = test system: K. pneumoniae ATCC 700603 (KP3); experiment: MIC broth microdilution; type: cell-based, Klebsiella pneumoniae; settings: for MIC: Klebsiella pneumoniae, ATCC700603
Outline: as §2

[15] = test system: K. pneumoniae H154020667 (KP6); experiment: MIC broth microdilution; type: cell-based, Klebsiella pneumoniae; settings: for MIC: Klebsiella pneumoniae
Outline: as §2

[16] = test system: K. pneumoniae NCTC 13438 (KP1); experiment: MIC broth microdilution; type: cell-based, Klebsiella pneumoniae; settings: for MIC: Klebsiella pneumoniae, NCTC13438
Outline: as §2

[17] = test system: K. pneumoniae H154300688 (KP9); experiment: MIC broth microdilution; type: cell-based, Klebsiella pneumoniae; settings: for MIC: Klebsiella pneumoniae
Outline: as §2

[18] = test system: K. pneumoniae H154640784 (KP7); experiment: MIC broth microdilution; type: cell-based, Klebsiella pneumoniae; settings: for MIC: Klebsiella pneumoniae
Outline: as §2

MIC [1] [µM]	MIC [2] [µM]	MIC [3] [µM]	MIC [4] [µM]	MIC [5] [µM]	MIC [6] [µM]	MIC [7] [µM]	MIC [8] [µM]	MIC [9] [µM]	IC50 [10] [µM]	MIC [11] [µM]	MIC [12] [µM]	MIC [13] [µM]	MIC [14] [µM]	MIC [15] [µM]	MIC [16] [µM]	MIC [17] [µM]	MIC [18] [µM]	SMILES	further results
≤ 1	> 100	> 100	> 100	≤ 1	≤ 1	1 to 10 (≈ 0.307 to 3.07 µg/mL)	≤ 1	≤ 1	> 100	1 to 10 (≈ 0.307 to 3.07 µg/mL)	≤ 1	≤ 1	1 to 10 (≈ 0.307 to 3.07 µg/mL)	≤ 1	1 to 10 (≈ 0.307 to 3.07 µg/mL)	1 to 10 (≈ 0.307 to 3.07 µg/mL)	1 to 10 (≈ 0.307 to 3.07 µg/mL)	Cc1cc(-c2[nH]c(N)nc2-c2ccc3c(c2)NCCO3)ccn1 [Example 27, 4-(3,4-Dihydro-2H-benzo[b][1,4]oxazin-6-yl)-5-(2-methylpyridin-4-yl)-1H-imidazol-2-amine]	
≤ 1	> 100	> 100	> 100	≤ 1	≤ 1	≤ 1	≤ 1	≤ 1	25 to 100	≤ 1	≤ 1	≤ 1	≤ 1	≤ 1	≤ 1	≤ 1	≤ 1	Cc1cc(-c2nc(N)[nH]c2-c2ccc(OCc3ccc(F)cc3)c(F)c2)ccn1 [Example 16, 5-(3-Fluoro-4-((4-fluorobenzyl)oxy)phenyl)-4-(2-methylpyridin-4-yl)-1H-imidazol-2-amine]	
≤ 1	> 100	> 100	> 100	≤ 1	≤ 1	1 to 10 (≈ 0.308 to 3.08 µg/mL)	≤ 1	≤ 1	> 100	1 to 10 (≈ 0.308 to 3.08 µg/mL)	≤ 1	≤ 1	1 to 10 (≈ 0.308 to 3.08 µg/mL)	≤ 1	1 to 10 (≈ 0.308 to 3.08 µg/mL)	≤ 1	1 to 10 (≈ 0.308 to 3.08 µg/mL)	Cc1cc(-c2[nH]c(N)nc2-c2ccc3c(c2)OCCO3)ccn1 [Example 23, 4-(2,3-Dihydrobenzo[b][1,4]dioxin-6-yl)-5-(2-methylpyridin-4-yl)-1H-imidazol-2-amine]	
≤ 1	> 100	> 100	> 100	≤ 1	≤ 1	≤ 1	≤ 1	≤ 1	25 to 100	1 to 10 (≈ 0.375 to 3.75 µg/mL)	≤ 1	≤ 1	1 to 10 (≈ 0.375 to 3.75 µg/mL)	≤ 1	1 to 10 (≈ 0.375 to 3.75 µg/mL)	≤ 1	1 to 10 (≈ 0.375 to 3.75 µg/mL)	Cc1cc(-c2[nH]c(N)nc2-c2ccc(OCc3ccc(F)cc3)nc2)ccn1 [Example 28, 4-(6-((4-Fluorobenzyl)oxy)pyridin-3-yl)-5-(2-methylpyridin-4-yl)-1H-imidazol-2-amine]	
≤ 1	> 100	> 100	> 100	≤ 1	≤ 1	10 to 100 (≈ 3.07 to 30.7 µg/mL)	≤ 1	≤ 1	> 100	1 to 10 (≈ 0.307 to 3.07 µg/mL)	≤ 1	1 to 10 (≈ 0.307 to 3.07 µg/mL)	1 to 10 (≈ 0.307 to 3.07 µg/mL)	≤ 1	1 to 10 (≈ 0.307 to 3.07 µg/mL)	1 to 10 (≈ 0.307 to 3.07 µg/mL)	1 to 10 (≈ 0.307 to 3.07 µg/mL)	CNc1cc(-c2[nH]c(N)nc2-c2ccc3c(c2)CCO3)ccn1 [Example 9, 4-(2-Amino-4-(2,3-dihydrobenzofuran-5-yl)-1H-imidazol-5-yl)-N-methylpyridin-2-amine]	
≤ 1	> 100	> 100	> 100	≤ 1	≤ 1	1 to 10 (≈ 0.292 to 2.92 µg/mL)	≤ 1	≤ 1	> 100	1 to 10 (≈ 0.292 to 2.92 µg/mL)	1 to 10 (≈ 0.292 to 2.92 µg/mL)	1 to 10 (≈ 0.292 to 2.92 µg/mL)	1 to 10 (≈ 0.292 to 2.92 µg/mL)	1 to 10 (≈ 0.292 to 2.92 µg/mL)	1 to 10 (≈ 0.292 to 2.92 µg/mL)	1 to 10 (≈ 0.292 to 2.92 µg/mL)	1 to 10 (≈ 0.292 to 2.92 µg/mL)	Cc1cc(-c2[nH]c(N)nc2-c2ccc3c(c2)CCO3)ccn1 [Example 3, 4-(2,3-Dihydrobenzofuran-5-yl)-5-(2-methylpyridin-4-yl)-1H-imidazol-2-amine]	
≤ 1	10 to 100 (≈ 3.74 to 37.4 µg/mL)	10 to 100 (≈ 3.74 to 37.4 µg/mL)	> 100	≤ 1	≤ 1	≤ 1	≤ 1	≤ 1	25 to 100	1 to 10 (≈ 0.374 to 3.74 µg/mL)	≤ 1	≤ 1	≤ 1	≤ 1	≤ 1	≤ 1	1 to 10 (≈ 0.374 to 3.74 µg/mL)	Cc1cc(-c2[nH]c(N)nc2-c2ccc(OCc3ccc(F)cc3)cc2)ccn1 [Example 19, 4-(4-((4-Fluorobenzyl)oxy)phenyl)-5-(2-methylpyridin-4-yl)-1H-imidazol-2-amine]	
																		C[C@@H](O)[C@H]1C(=O)N2C(C(=O)O)=C(SCCN=CN)C[C@H]12 [IPM]	MIC UPEC [1]: A (an MIC (μM) of less or equal to 1 is assigned the letter A); MIC AB [2]: A (an MIC (μM) of less or equal to 1 is assigned the letter A); MIC SA [3]: A (an MIC (μM) of less or equal to 1 is assigned the letter A); MIC PA [4]: B (a MIC of from 1 to 10 is assigned the letter B); MIC EC [5]: A (an MIC (μM) of less or equal to 1 is assigned the letter A); MIC Ecl [6]: B (a MIC of from 1 to 10 is assigned the letter B); MIC Sm [7]: B (a MIC of from 1 to 10 is assigned the letter B); MIC St [8]: B (a MIC of from 1 to 10 is assigned the letter B); MIC KP2 [9]: B (a MIC of from 1 to 10 is assigned the letter B); MIC KP8 [11]: D (a MIC of over 100 is assigned the letter D); MIC KP10 [12]: C (a MIC of from 10 to 100 is assigned the letter C); MIC KP5 [13]: B (a MIC of from 1 to 10 is assigned the letter B); MIC KP3 [14]: B (a MIC of from 1 to 10 is assigned the letter B); MIC KP6 [15]: B (a MIC of from 1 to 10 is assigned the letter B); MIC KP1 [16]: C (a MIC of from 10 to 100 is assigned the letter C); MIC KP9 [17]: D (a MIC of over 100 is assigned the letter D); MIC KP7 [18]: C (a MIC of from 10 to 100 is assigned the letter C)
≤ 1	> 100	10 to 100 (≈ 3.75 to 37.5 µg/mL)	> 100	≤ 1	≤ 1	≤ 1	≤ 1	≤ 1	25 to 100	1 to 10 (≈ 0.375 to 3.75 µg/mL)	≤ 1	≤ 1	1 to 10 (≈ 0.375 to 3.75 µg/mL)	≤ 1	1 to 10 (≈ 0.375 to 3.75 µg/mL)	≤ 1	1 to 10 (≈ 0.375 to 3.75 µg/mL)	Nc1cc(-c2[nH]c(N)nc2-c2ccc(OCc3ccc(F)cc3)cc2)ccn1 [Example 7, 4-(2-Amino-4-(4-((4-fluorobenzyl)oxy)phenyl)-1H-imidazol-5-yl)pyridin-2-amine]	
																		C[C@H]1c2cccc(O)c2C(=O)C2=C(O)[C@]3(O)C(=O)C(C(N)=O)=C(O)[C@@H](N(C)C)[C@@H]3[C@@H](O)[C@@H]21 [DOX]	MIC UPEC [1]: C (a MIC of from 10 to 100 is assigned the letter C); MIC AB [2]: A (an MIC (μM) of less or equal to 1 is assigned the letter A); MIC SA [3]: A (an MIC (μM) of less or equal to 1 is assigned the letter A); MIC PA [4]: C (a MIC of from 10 to 100 is assigned the letter C); MIC EC [5]: B (a MIC of from 1 to 10 is assigned the letter B); MIC Ecl [6]: B (a MIC of from 1 to 10 is assigned the letter B); MIC Sm [7]: B (a MIC of from 1 to 10 is assigned the letter B); MIC St [8]: B (a MIC of from 1 to 10 is assigned the letter B); MIC KP2 [9]: A (an MIC (μM) of less or equal to 1 is assigned the letter A); MIC KP8 [11]: C (a MIC of from 10 to 100 is assigned the letter C); MIC KP10 [12]: B (a MIC of from 1 to 10 is assigned the letter B); MIC KP5 [13]: C (a MIC of from 10 to 100 is assigned the letter C); MIC KP3 [14]: C (a MIC of from 10 to 100 is assigned the letter C); MIC KP6 [15]: C (a MIC of from 10 to 100 is assigned the letter C); MIC KP1 [16]: C (a MIC of from 10 to 100 is assigned the letter C); MIC KP9 [17]: C (a MIC of from 10 to 100 is assigned the letter C); MIC KP7 [18]: C (a MIC of from 10 to 100 is assigned the letter C)
